In the NIST ThermoML archive (doi:10.1021/acs.jced.6b01043):

Test: relative permittivity at zero frequency (dimensionless); xn = mol fraction of the nth substance listed
Conditions: Gas, Reentrant cavity resonator

[Ar] [argon] + O=C=O
Conditions | relative permittivity at zero frequency
255.1 K, 2068.9 kPa, x1 = 0.0505 | 1.02661
260.14 K, 2446.9 kPa, x1 = 0.0505 | 1.03197
266.15 K, 2919.5 kPa, x1 = 0.0505 | 1.03887
271.4 K, 3365.6 kPa, x1 = 0.0505 | 1.04566
273.2 K, 454.8 kPa, x1 = 0.2491 | 1.004
273.2 K, 962.7 kPa, x1 = 0.2491 | 1.0088
273.2 K, 1001.6 kPa, x1 = 0.2491 | 1.0091
273.2 K, 2004.3 kPa, x1 = 0.2491 | 1.0195
273.2 K, 2014.8 kPa, x1 = 0.2491 | 1.0196
273.2 K, 3008.7 kPa, x1 = 0.2491 | 1.0314
273.2 K, 4029 kPa, x1 = 0.2491 | 1.0459
273.2 K, 4487 kPa, x1 = 0.2491 | 1.0535
273.21 K, 506.6 kPa, x1 = 0.2491 | 1.0045
279.73 K, 4266.1 kPa, x1 = 0.0505 | 1.06129
279.73 K, 4267.8 kPa, x1 = 0.0505 | 1.06132
283.23 K, 492.8 kPa, x1 = 0.2491 | 1.0042
283.23 K, 969.4 kPa, x1 = 0.0505 | 1.00945
283.23 K, 4007.7 kPa, x1 = 0.0505 | 1.05273
283.23 K, 4493.9 kPa, x1 = 0.0505 | 1.06407
283.23 K, 6491.3 kPa, x1 = 0.2491 | 1.0858
283.24 K, 1029.9 kPa, x1 = 0.0505 | 1.01008
283.24 K, 2002 kPa, x1 = 0.2491 | 1.0185
283.24 K, 2006.1 kPa, x1 = 0.0505 | 1.0212
283.24 K, 2011.5 kPa, x1 = 0.0505 | 1.02127
283.24 K, 2992.8 kPa, x1 = 0.2491 | 1.0294
283.24 K, 2993.3 kPa, x1 = 0.2491 | 1.0294
283.24 K, 2998.2 kPa, x1 = 0.0505 | 1.03482
283.24 K, 3973.7 kPa, x1 = 0.0505 | 1.05203
283.24 K, 3995.6 kPa, x1 = 0.2491 | 1.042
283.24 K, 4006.4 kPa, x1 = 0.2491 | 1.0421
283.24 K, 4991.8 kPa, x1 = 0.2491 | 1.0568
283.24 K, 5983.5 kPa, x1 = 0.2491 | 1.0748
283.24 K, 5987 kPa, x1 = 0.2491 | 1.0749
283.25 K, 1008.9 kPa, x1 = 0.2491 | 1.0088
283.25 K, 2012.2 kPa, x1 = 0.2491 | 1.0186
283.44 K, 4710.8 kPa, x1 = 0.0505 | 1.06985
289.87 K, 5632 kPa, x1 = 0.0505 | 1.09119
292.67 K, 6086.3 kPa, x1 = 0.0505 | 1.10382
293.27 K, 1007.1 kPa, x1 = 0.2491 | 1.0085
293.27 K, 2005.7 kPa, x1 = 0.2491 | 1.0177
293.27 K, 3006.2 kPa, x1 = 0.2491 | 1.0279
293.27 K, 4006.6 kPa, x1 = 0.2491 | 1.0394
293.27 K, 4993.4 kPa, x1 = 0.2491 | 1.0523
293.27 K, 5847.6 kPa, x1 = 0.2491 | 1.0651
293.27 K, 6499.2 kPa, x1 = 0.2491 | 1.0761
293.28 K, 3999.6 kPa, x1 = 0.2491 | 1.0393
293.28 K, 5994.6 kPa, x1 = 0.2491 | 1.0674
294.27 K, 6419.2 kPa, x1 = 0.0505 | 1.11591
313.26 K, 2602.6 kPa, x1 = 0.0505 | 1.02461
313.26 K, 3052 kPa, x1 = 0.0505 | 1.02963
313.26 K, 3592.1 kPa, x1 = 0.0505 | 1.03607
313.28 K, 7083.6 kPa, x1 = 0.0505 | 1.0967
313.29 K, 4089.6 kPa, x1 = 0.0505 | 1.04247
313.3 K, 4550.7 kPa, x1 = 0.0505 | 1.04884
313.3 K, 5083 kPa, x1 = 0.0505 | 1.05688
313.3 K, 5566.4 kPa, x1 = 0.0505 | 1.06488
313.3 K, 6028.4 kPa, x1 = 0.0505 | 1.07333
313.3 K, 6550 kPa, x1 = 0.0505 | 1.08408
313.3 K, 7027.1 kPa, x1 = 0.0505 | 1.09523
